Literature values in paper PMC4141160, “Peptide Inhibitor of Complement C1, a Novel Suppressor of Classical Pathway Activation: Mechanistic Studies and Clinical Potential” (Frontiers in Immunology, 2014).

What was measured:
purified C1q = target: purified C1q; set-up: method as in PMID 22906481; conditions: surface plasmon resonance, read-out: mean equilibrium dissociation constant (KD)
CLR of C1q = conditions: ELISA
C1q = tested on: C1q; set-up: method as in PMID 20728940
transfused human RBCs = tested on: transfused human RBCs; set-up: method as in PMID 12576307; conditions: mouse
C4a = conditions: single i.v. injection at 30 mg/kg; ELISA

In the case of IALILEPICCQERAA [PA], the “Classical pathway inhibition values using 0.77 mM peptide” value (“Classical pathway inhibition values” for short) (classical pathway) is given as 85%, the Kd (purified C1q) is given as 33.3 nM and the “binding to the CLR of C1q” value (CLR of C1q) is given as “specifically bind to the CLR of C1q”.

In the case of “PAICQRAEIEACILL [Δ8–22, CPP1 with central region removed, functional peptide of 15 residues]”, the “effect on the alternative pathway” value (alternative pathway) is listed as “minimal effect” and the “Classical pathway inhibition values” value (classical pathway) is listed as 70%.

For “PAICQRATATLGTVGSNTSGTTEIEACILL [CPP1, 30-residue PIC1 derivative from the HNP-1 homology region of astrovirus CP]”, the “inhibition of C1 activation, as assayed by C1s cleavage” value (C1) is given as “inhibited C1 activation”, the “inhibition of the binding of CP to C1q” value (C1q) is given as “inhibited the binding of CP to C1q” and the “Classical pathway inhibition values” value (classical pathway) is given as 50%.

In the case of sCR1: soluble complement receptor 1, the “hemolysis and C3 and C4 deposition on transfused human RBCs” value (transfused human RBCs) is given as “temporarily inhibit hemolysis as well as C3 and C4 deposition”.

B1: TNT009: humanized monoclonal analog of TNT003 (antibody, chains of the INN, looked up, V domains shown)
VH: EVQLVESGGGLVKPGGSLRLSCAASGFTFSNYAMSWVRQAPGKGLEWVATISSGGSHTYYLDSVKGRFTISRDNSKNTLYLQMNSLRAEDTALYYCARLFTGYAMDYWGQGTLVTVSS
VL: QIVLTQSPATLSLSPGERATMSCTASSSVSSSYLHWYQQKPGKAPKLWIYSTSNLASGVPSRFSGSGSGTDYTLTISSLQPEDFATYYCHQYYRLPPITFGQGTKLEIK
For B1, the “in vivo generation of C4a” value (C4a) is listed as “inhibited the in vivo generation of C4a”.
